The subject of series [1] is Monocotyledonous and dicotyledonous test plants. Nature of the series: Herbicidal action before emergence of the plants (pre-emergence action), greenhouse pot test, 9-level rating after 4 weeks. The format is in vivo. The conditions noted are these: 250 g/ha, rated after 4 weeks, 9-level scale. The method, boiled down:
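Compounds applied pre-emergence as a spray (500 l water/ha) of aqueous suspension or emulsion onto soil immediately after sowing mono- and dicot species in pots. Greenhouse-grown; damage rated after 4 weeks on a 9-level scale (1=complete damage, 9=no effect).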

Series [2] has the same test system. Kind of series: Post-emergence herbicidal action, greenhouse pot test, sprayed at the 2- to 3-leaf stage, 9-level rating after 2 to 3 weeks. The conditions noted are these: 250 g/ha, rated after 2 to 3 weeks, 9-level scale. The format is in vivo. Summed up: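 Plants grown in standard soil in pots; test substances sprayed at the 2- to 3-leaf stage at optimum dosage (500 l water/ha) as aqueous suspension or emulsion from formulated concentrates. Plants then kept in the greenhouse under optimum conditions; rated after 2 to 3 weeks on a 9-level scale (1=complete damage, 9=no effect).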

A word on the melting point: it is the temperature of the solid-liquid transition.

The structures appear in SMILES notation.

`O=C(c1ccc(C(F)(F)F)nc1COCCCl)C1C(=O)C2CCC(C2)C1=O` (centres unmarked) [1.080] returned a melting point of 63 to 64 °C.
Same read-out and setting: under `CCOCc1nc(C(F)(F)F)ccc1C(=O)c1cnn(C)c1O` [1.020] stands 32 to 33 °C; under `COCc1nc(C(F)(F)F)ccc1C(=O)c1c(C)nn(C)c1O` [1.001], 138 to 140 °C; under `CCCOCCOCc1nc(C(F)(F)F)ccc1C(=O)C1=C(O)C2CCC(C2)C1=O` (centres unmarked) [1.052], 41 to 43 °C.
On the same count and under the same terms, the result for `O=C(C1=C(O)C2CCC(C2)C1=O)c1ccc(C(F)(F)F)nc1COCc1ccccc1` (centres unmarked) [1.068] reads 68 to 69 °C.
`COCOCc1nc(C(F)(F)F)ccc1C(=O)C1=C(O)C2CCC(C2)C1=O` (centres unmarked) [1.017]: the melting point was in the range of 95 to 98 °C.
On the same count and under the same terms, under `O=C(c1ccc(C(F)(F)F)nc1COCC1CCCO1)C1C(=O)C2CCC(C2)C1=O` (centres unmarked) [1.073] stands 46 to 47 °C; under `COC(=O)COCc1nc(C(F)(F)F)ccc1C(=O)C1=C(O)C2CCC(C2)C1=O` (centres unmarked) [1.031], 106 to 107 °C.
In the case of `O=C(OCCOCc1nc(C(F)(F)F)ccc1C(=O)C1=C(OC(=O)c2ccccc2)C2CCC(C2)C1=O)c1ccccc1` (centres unmarked) [1.055], the melting point lay within 96 to 98 °C.
The compound `CC(=O)OCCOCc1nc(C(F)(F)F)ccc1C(=O)C1=C(O)C2CCC(C2)C1=O` (centres unmarked) [1.050] yielded a melting point of 90 to 93 °C.
On the same count and under the same terms, the result for `CCOCCOCc1nc(C(F)(F)F)ccc1C(=O)c1cnn(C)c1O` [1.022] reads 38 to 39 °C; that for `COCCOCc1nc(C(F)(F)F)ccc1C(=O)C1=C(O)C(C)(C)C(=O)C(C)(C)C1=O` [1.012], 99 to 100 °C; that for `CC(=O)OCc1nc(C(F)(F)F)ccc1C(=O)C1=C(O)C2CCC(C2)C1=O.[K+]` (centres unmarked), 145 to 150 °C.
`O=C(C1=C(O)C2CCC(C2)C1=O)c1ccc(C(F)(F)F)nc1COCCOCC(F)(F)F` (centres unmarked) [1.066] returned a melting point of 40 to 44 °C.
Regarding `O=C(C1=C(O)C2CCC(C2)C1=O)c1ccc(C(F)(F)F)nc1COCCCOCc1ccccc1` (centres unmarked) [1.069], the melting point was 78 to 80 °C.
Same read-out and setting: under `CC(C)(C)C(=O)OC1=C(C(=O)c2ccc(C(F)(F)F)nc2COCCO)C(=O)C2CCC1C2` (centres unmarked) [1.059] stands 79 to 81 °C; under `CC1(C)C(=O)C(C(=O)c2ccc(C(F)(F)F)nc2COCc2ccccc2)C(=O)C(C)(C)C1=O` [1.076], 75 to 76 °C.
Still for that read-out and setting: under `COCCOCc1nc(C(F)(F)F)ccc1C(=O)C1=C(O)CC(C)CC1=O` (centres unmarked) [1.082] stands 76 to 78 °C; under `CN(Cc1nc(C(F)(F)F)ccc1C(=O)C1=C(O)C2CCC(C2)C1=O)S(C)(=O)=O` (centres unmarked) [1.090], 149 to 150 °C.
The same measure, in the same setting: under `C=CCOCc1nc(C(F)(F)F)ccc1C(=O)C1=C(O)C2CCC(C2)C1=O` (centres unmarked) [1.018] stands 53 to 55 °C.
`COCCOCc1nc(C(F)(F)F)ccc1C(=O)C1C(=O)CCC2(CC2)C1=O` (centres unmarked) [1.070] yielded a melting point of 40 to 42 °C.
`C#CCOCc1nc(C(F)(F)F)ccc1C(=O)C1=C(O)C2CCC(C2)C1=O` (centres unmarked) [1.016] showed a melting point of 71 to 74 °C.
On the same count and under the same terms, under `COCc1nc(C(F)(F)F)ccc1C(=O)c1cnn(C)c1O` [1.019] stands 32 to 34 °C.
On to `CN(Cc1nc(C(F)(F)F)ccc1C(=O)c1cnn(C)c1O)S(C)(=O)=O` [1.091], for which the melting point lay within 110 to 112 °C.
Still for that read-out and setting: under `O=C(C1=C(O)C2CCC(C2)C1=O)c1ccc(C(F)(F)F)nc1COCC1CO1` (centres unmarked) [1.015] stands 54 to 56 °C; under `COc1ccccc1OCc1nc(C(F)(F)F)ccc1C(=O)C1=C(O)C2CCC(C2)C1=O` (centres unmarked) [1.028], 113 to 115 °C.
As to `O=C(C1=C(O)C2CCC(C2)C1=O)c1ccc(C(F)(F)F)nc1COC1COC1` (centres unmarked) [1.065], the melting point was 102 to 105 °C.
On to `C#CCCOCc1nc(C(F)(F)F)ccc1C(=O)C1=C(O)C2CCC(C2)C1=O` (centres unmarked) [A836-B52], for which, in series [1] (Abutilon), the “Pre-emergence action rating, Abutilon” value amounted to 5. In series [1] (Amaranthus), the “Pre-emergence action rating, Amaranthus” value is 2. Further, the “Pre-emergence action rating, Chenop.” value in series [1] (Chenop.) amounted to 3. Also, in series [1] (Digitaria), the “Pre-emergence action rating, Digitaria” value stood at 2. Moreover, the “Pre-emergence action rating, Echino.” value in series [1] (Echino.) is 1. For the same compound, in series [1] (Panicum), the “Pre-emergence action rating, Panicum” value was determined as 1. For the same compound, the “Post-emergence action rating, Abutilon” value in series [2] (Abutilon) worked out at 2. Moreover, the “Post-emergence action rating, Amaranth” value in series [2] (Amaranth) was 2. Moreover, the “Post-emergence action rating, Chenop.” value in series [2] (Chenop.) came to 1. For the same compound, in series [2] (Digitaria), the “Post-emergence action rating, Digitaria” value was 2. In series [2] (Echino.), the “Post-emergence action rating, Echino.” value came out at 2. In addition, the “Post-emergence action rating, Ipopur.” value in series [2] (Ipopur.) was found to be 3. Also, the “Post-emergence action rating, Panicum” value in series [2] (Panicum) is recorded as 2. The “Post-emergence action rating, Xanth.” value in series [2] (Xanth.) is given as 3.

(Values after US7378375B1, “Substituted pyridine herbicides” (Syngenta Crop Protection, Inc., priority 2000, dated 2008).)
